According to patent US7728142B2, “3-methanesulfonylquinolines as GABAB enhancers” (Hoffmann-La Roche Inc., priority 2005, dated 2010):
Where two headings read alike, the source gives them in different places.

What was measured:
[1] = system: panic attacks and symptoms of anxiety; conditions: panic disorder patients; Hamilton, Zung anxiety scales, Katz-R nervousness subscale; cited from earlier work
symptoms of PTSD = conditions: small group of veterans with chronic, combat-related PTSD; cited from earlier work
prepulse inhibition = conditions: rat; cited from earlier work
[2] = in vivo; cited from earlier work
[3] = PO, cited from earlier work
GABABR1R2 = GABABR1R2 (Homo sapiens, UniProt O75899+Q9UBS5); conditions: absence of GABA; cited from earlier work
Chain of GABABR1R2 (Q9UBS5 20-961): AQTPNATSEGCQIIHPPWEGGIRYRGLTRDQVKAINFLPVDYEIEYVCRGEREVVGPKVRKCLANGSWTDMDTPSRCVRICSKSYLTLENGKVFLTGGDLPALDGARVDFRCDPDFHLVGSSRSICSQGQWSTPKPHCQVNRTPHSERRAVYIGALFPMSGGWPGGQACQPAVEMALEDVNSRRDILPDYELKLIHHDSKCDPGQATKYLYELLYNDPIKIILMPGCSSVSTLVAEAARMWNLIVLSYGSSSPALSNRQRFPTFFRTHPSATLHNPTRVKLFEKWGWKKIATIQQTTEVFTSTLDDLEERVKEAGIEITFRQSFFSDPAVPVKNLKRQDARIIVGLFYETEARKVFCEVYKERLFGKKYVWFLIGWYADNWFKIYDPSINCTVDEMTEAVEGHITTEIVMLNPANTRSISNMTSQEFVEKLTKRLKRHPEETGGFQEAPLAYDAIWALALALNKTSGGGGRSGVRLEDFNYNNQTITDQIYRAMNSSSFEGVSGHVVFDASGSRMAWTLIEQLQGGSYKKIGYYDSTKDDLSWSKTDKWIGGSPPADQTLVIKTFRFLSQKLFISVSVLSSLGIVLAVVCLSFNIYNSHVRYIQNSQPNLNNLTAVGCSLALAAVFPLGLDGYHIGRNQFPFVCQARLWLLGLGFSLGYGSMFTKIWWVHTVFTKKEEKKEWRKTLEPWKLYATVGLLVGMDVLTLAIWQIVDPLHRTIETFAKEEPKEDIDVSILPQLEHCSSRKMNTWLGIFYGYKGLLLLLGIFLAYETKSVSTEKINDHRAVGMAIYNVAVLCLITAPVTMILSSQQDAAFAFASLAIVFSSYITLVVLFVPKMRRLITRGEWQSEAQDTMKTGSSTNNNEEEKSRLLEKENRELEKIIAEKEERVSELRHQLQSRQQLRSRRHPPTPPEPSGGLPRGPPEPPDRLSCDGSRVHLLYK
Chain of GABABR1R2 (O75899 42-941): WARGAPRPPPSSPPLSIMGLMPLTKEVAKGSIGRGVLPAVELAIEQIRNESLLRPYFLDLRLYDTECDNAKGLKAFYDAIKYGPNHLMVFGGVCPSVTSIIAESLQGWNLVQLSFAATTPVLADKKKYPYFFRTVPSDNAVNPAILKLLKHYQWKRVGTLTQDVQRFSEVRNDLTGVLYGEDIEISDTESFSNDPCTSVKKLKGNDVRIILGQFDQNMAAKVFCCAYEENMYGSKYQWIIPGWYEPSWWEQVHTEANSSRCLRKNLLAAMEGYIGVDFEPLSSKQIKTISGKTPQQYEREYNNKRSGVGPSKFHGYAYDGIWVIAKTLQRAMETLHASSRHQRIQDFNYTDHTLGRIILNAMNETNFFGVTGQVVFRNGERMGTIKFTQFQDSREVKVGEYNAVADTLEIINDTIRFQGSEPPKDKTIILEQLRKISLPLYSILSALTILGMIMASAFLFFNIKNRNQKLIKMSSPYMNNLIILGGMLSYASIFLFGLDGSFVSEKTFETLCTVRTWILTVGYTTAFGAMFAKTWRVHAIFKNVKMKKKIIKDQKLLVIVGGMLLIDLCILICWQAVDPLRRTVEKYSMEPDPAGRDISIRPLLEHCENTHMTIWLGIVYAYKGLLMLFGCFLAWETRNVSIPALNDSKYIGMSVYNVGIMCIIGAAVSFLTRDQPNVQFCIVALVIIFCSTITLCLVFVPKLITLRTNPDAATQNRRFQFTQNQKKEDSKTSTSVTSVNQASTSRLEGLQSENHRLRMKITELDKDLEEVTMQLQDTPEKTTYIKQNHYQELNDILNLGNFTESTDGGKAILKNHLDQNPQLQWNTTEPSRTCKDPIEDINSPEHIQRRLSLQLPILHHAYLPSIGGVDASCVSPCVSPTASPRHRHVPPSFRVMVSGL

[4] = system: cocaine self-administration; conditions: rats; cited from earlier work
[5] = system: Gastro-Esophageal Reflux Disease; conditions: preclinical; cited from earlier work
human GABABR1aR2a [6] = target: T1, human GABABR1aR2a (Homo sapiens, UniProt O75899+Q9UBS5); assay: Intracellular Ca2+ mobilization assay (FLIPR), enhancer concentration-response in presence of 10 nM GABA; type: cell-based; conditions: CHO-GABABR1aR2a-Gα16 cell; for Emax: enhancer 0.001-30 μM in presence of 10 nM GABA (EC10), read-out: Emax (%) at 10 nM GABA alone = 0% 10 μM GABA alone = 100%; for EC50: in presence of 10 nM GABA (EC10)
T1 construct: expressed in transfected cells
T1 sequence (Q9UBS5 15-961 limits assumed): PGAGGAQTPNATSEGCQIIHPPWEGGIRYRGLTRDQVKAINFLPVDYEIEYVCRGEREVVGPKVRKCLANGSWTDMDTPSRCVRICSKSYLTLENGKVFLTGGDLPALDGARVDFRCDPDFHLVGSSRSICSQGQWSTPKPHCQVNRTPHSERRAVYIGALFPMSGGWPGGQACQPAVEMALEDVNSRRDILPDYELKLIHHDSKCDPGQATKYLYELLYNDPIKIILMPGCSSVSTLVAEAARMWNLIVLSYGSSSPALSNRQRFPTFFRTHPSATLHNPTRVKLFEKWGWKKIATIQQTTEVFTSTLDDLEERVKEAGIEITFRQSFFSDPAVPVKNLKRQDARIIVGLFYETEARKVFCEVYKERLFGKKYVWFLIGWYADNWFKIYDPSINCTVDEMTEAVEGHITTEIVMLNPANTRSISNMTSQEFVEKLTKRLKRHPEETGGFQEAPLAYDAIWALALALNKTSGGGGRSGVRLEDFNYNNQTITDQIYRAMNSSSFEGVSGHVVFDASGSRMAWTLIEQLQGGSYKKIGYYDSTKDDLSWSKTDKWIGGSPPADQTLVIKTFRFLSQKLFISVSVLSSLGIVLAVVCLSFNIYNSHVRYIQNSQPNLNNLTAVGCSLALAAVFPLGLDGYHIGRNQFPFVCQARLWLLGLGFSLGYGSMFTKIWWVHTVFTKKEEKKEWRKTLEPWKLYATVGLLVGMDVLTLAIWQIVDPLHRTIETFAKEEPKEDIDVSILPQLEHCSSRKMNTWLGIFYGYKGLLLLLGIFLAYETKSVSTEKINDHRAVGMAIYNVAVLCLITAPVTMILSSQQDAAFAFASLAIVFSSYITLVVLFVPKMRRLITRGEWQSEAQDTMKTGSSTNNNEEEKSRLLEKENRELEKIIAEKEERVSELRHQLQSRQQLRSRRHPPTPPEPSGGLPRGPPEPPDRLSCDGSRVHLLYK
T1 sequence (O75899 42-941): as the sequence (O75899 42-941) above
Procedure: (§1) Intracellular Ca^2+ Mobilization Assay
(§2) Chinese Hamster Ovary (CHO) cells stably expressing human GABABR1aR2a and Gα16 were seeded at 5×10^4 cells/well in the poly-D-lysine treated, 96-well, black/clear-bottomed plates (BD Biosciences, Palo Alto, Calif.). 24 h later, the cells were loaded for 90 min at 37° C. with 4 μM Flou-4 acetoxymethyl ester (Catalog No. F-14202, Molecular Probes, Eugene, Oreg.) in loading buffer (1×HBSS, 20 mM HEPES, 2.5 mM Probenecid). Hanks' Balanced Salt Solution (HBSS) (10×) (catalog No. 14065-049) and HEPES (1M) (catalog No. 15630-056) were purchased from Invitrogen, Carlsbad, Calif. Probenecid (250 mM) (catalog No. P8761) was from Sigma, Buchs, Switzerland. The cells were washed five times with loading buffer to remove excess dye and intracellular calcium mobilization, [Ca^2+] was measured using a Fluorometric Imaging Plate Reader (FLIPR, Molecular Devices, Menlo Park, Calif.) as described previously (Porter et al., Br. J. Pharmacol., 128, 13-20, 1999). The enhancers were applied 15 min before the application of the GABA. For GABA shift assay, concentration-response curves of GABA (0.0003-30 μM) were determined in the absence and presence of 10 μM enhancer. The GABA-shift is defined as Log [EC50 (GABA+10 μM enhancer)/EC50 (GABA alone)]. The % maximum enhancing effect (% Emax) and potency (EC50 value) of each enhancer was determined from concentration-response curve of the enhancer (0.001-30 μM) in the presence of 10 nM GABA (EC10). Responses were measured as peak increase in fluorescence minus basal, normalized to the maximal stimulatory effect induced by 10 μM GABA alone (considered 100%) and 10 nM GABA alone (considered 0%). The data were fitted with the equation Y=100+(Max−100)/(1+(EC50/[drug])^n) where Max is the maximum effect, EC50 the concentration eliciting a half-maximum effect and n the Hill slope.

human GABABR1aR2a [7] = target: T1, human GABABR1aR2a; assay: GABA shift assay (Ca2+ mobilization, GABA curves with and without 10 μM enhancer); type: cell-based; conditions: CHO-GABABR1aR2a-Gα16 cell
Procedure: as §1, §2

anxiety [8] = conditions: cited from earlier work
cognition performance = conditions: passive avoidance, mice and rats; cited from earlier work
anxiety [9] = conditions: elevated plus maze (rat), elevated zero maze (mice and rats), stress-induced hyperthermia (mice); cited from earlier work

Compound | Emax (human GABABR1aR2a [6]) | EC50 (human GABABR1aR2a [6]) | GABA shift Log [EC50(GABA + 10 μM cp)/EC50(GABA alone)] (human GABABR1aR2a [7]) | also measured
NCC(CC(=O)O)c1ccc(Cl)cc1 (stereo not drawn) [Baclofen, β-chlorophenyl GABA] | – | – | – | reduction of number of panic attacks and symptoms of anxiety [1]: significantly effective; treatment of PTSD (symptoms of PTSD): effective and well-tolerated treatment; reversal of reduction in prepulse inhibition induced by dizocilpine (prepulse inhibition): able to reverse the reduction in prepulse inhibition; blood-brain-barrier penetration [2]: poor blood-brain-barrier penetration; effect on spontaneous locomotor activity, rotarod, body temperature and traction test ([3]; 2.5-15 mg/kg): showed these side effects
CC(C)(CO)Cc1cc(C(C)(C)C)c(O)c(C(C)(C)C)c1 [CGP7930, 2,6-di-tert-butyl-4-(3-hydroxy-2,2-dimethyl-propyl)-phenol] | – | – | – | effect on their own at GABAB receptors (GABABR1R2): no effect on their own; decrease of cocaine self-administration [4]: effective at decreasing cocaine self-administration; efficacy in GERD [5]: found to be effective
CC(C)(C=O)Cc1cc(C(C)(C)C)c(O)c(C(C)(C)C)c1 [CGP13501] | – | – | – | effect on their own at GABAB receptors (GABABR1R2): no effect on their own
Cc1nc2ccc(OC(F)(F)F)cc2c(-c2ccccc2)c1S(C)(=O)=O [Example 1, 3-Methanesulfonyl-2-methyl-4-phenyl-6-trifluoromethoxy-quinoline] | 56% | 0.85 µM | −0.7 | –
Cc1nc2ccc(I)cc2c(N2CCOCC2)c1S(C)(=O)=O [Example 5, 6-Iodo-3-methanesulfonyl-2-methyl-4-morpholin-4-yl-quinoline] | 30% | 2.1 µM | −0.4 | –
Cc1nc2ccc(I)cc2c(N2CCCCC2)c1S(C)(=O)=O [Example 9, 6-Iodo-3-methanesulfonyl-2-methyl-4-piperidin-1-yl-quinoline] | 48% | 0.6 µM | −1.2 | –
Cc1nc2ccc(I)cc2c(N2CCC[C@@H](O)C2)c1S(C)(=O)=O [Example 11, (R)-1-(6-Iodo-3-methanesulfonyl-2-methyl-quinolin-4-yl)-piperidin-3-ol] | 26% | 0.8 µM | −0.8 | –
Cc1nc2ccc(Br)cc2c(-c2ccc(F)cc2)c1S(C)(=O)=O [Example 14, 6-Bromo-4-(4-fluoro-phenyl)-3-methanesulfonyl-2-methyl-quinoline] | 37% | 2.1 µM | −0.45 | –
CSc1nc(NC2CCCC2)c([N+](=O)[O-])c(NC2CCCC2)n1 [GS39783, N,N_-dicyclopentyl-2-methylsulfanyl-5-nitro-pyrimidine-4,6-diamine] | – | – | – | tolerance after chronic treatment (anxiety [8]; 21 days, 10 mg/kg, P.O., once daily): No tolerance; anxiolytic effects in light-dark box and elevated zero maze (anxiety [8]; acute and chronic treatment): anxiolytic effects; effect on spontaneous locomotor activity, rotarod, body temperature and traction test ([3]; 0.1-200 mg/kg): had no effect; effect on cognition performance (cognition performance): did not have any effect; anxiolytic-like effects (anxiety [9]): exhibited anxiolytic-like effects; decrease of cocaine self-administration [4]: effective at decreasing cocaine self-administration
